Experimental data: ChEMBL document CHEMBL1201862, “PubChem BioAssay data set” (2004)
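These data come from cells grown in 96-well plates and exposed to compound for 48 hours at five concentrations. The concentration for 50% growth inhibition is given as GI50.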 Activity calls are given as the source filed them. Rule as the data show it: active = GI50 up to about 1.1 µM and inactive = higher.

Columns and labels:
Assay in all cases: NCI-60 cell line screen, 48 h
SK-MEL-5 = system: SK-MEL-5
DU-145 = system: DU-145
M14 = system: M14
TK-10 = system: TK-10
HOP-62 = system: HOP-62
RXF 393 = system: RXF 393
MOLT-4 = system: MOLT-4
A549 = system: A549
HCT-116 = system: HCT-116
PC-3 = system: PC-3
A498 = system: A498
EKVX = system: EKVX
T47D = system: T47D
SN12C = system: SN12C
NCI-H226 = system: NCI-H226
OVCAR-3 = system: OVCAR-3
NCI/ADR-RES = system: NCI/ADR-RES
HCT-15 = system: HCT-15
MCF7 = system: MCF7
OVCAR-5 = system: OVCAR-5
SF-268 = system: SF-268
786-0 = system: 786-0
HL-60 = system: HL-60
SF-295 = system: SF-295
U-251 = system: U-251
SK-OV-3 = system: SK-OV-3
NCI-H522 = system: NCI-H522
MDA-MB-231 = system: MDA-MB-231
IGROV-1 = system: IGROV-1
UACC-257 = system: UACC-257
OVCAR-4 = system: OVCAR-4
K562 = system: K562
SR = system: SR
MDA-MB-435 = system: MDA-MB-435
CAKI-1 = system: CAKI-1
SK-MEL-28 = system: SK-MEL-28
HT-29 = system: HT-29
Hs-578T = system: Hs-578T
SF-539 = system: SF-539
KM12 = system: KM12
CCRF-CEM = system: CCRF-CEM
Malme-3M = system: Malme-3M
SK-MEL-2 = system: SK-MEL-2
OVCAR-8 = system: OVCAR-8
MDA-N = system: MDA-N
RPMI-8226 = system: RPMI-8226
BT-549 = system: BT-549
SNB-19 = system: SNB-19
SNB-75 = system: SNB-75
SW-620 = system: SW-620
LOX IMVI = system: LOX IMVI
UACC-62 = system: UACC-62
COLO 205 = system: COLO 205
NCI-H460 = system: NCI-H460
UO-31 = system: UO-31

What does the source list for `O=C(NNC(=O)c1ccccc1O)c1ccc(O)cc1`?
GI50 (SK-MEL-5): > 100 µM (inactive); GI50 (DU-145): 76.7 µM (inactive); GI50 (M14): 23.7 µM (inactive); GI50 (TK-10): > 100 µM (inactive); GI50 (HOP-62): 47.5 µM (inactive); GI50 (RXF 393): > 100 µM (inactive); GI50 (MOLT-4): 36.4 µM (inactive); GI50 (A549): 38.8 µM (inactive); GI50 (HCT-116): 33.2 µM (inactive); GI50 (PC-3): 37.6 µM (inactive); GI50 (A498): > 100 µM (inactive); GI50 (EKVX): 38.3 µM (inactive); GI50 (T47D): > 100 µM (inactive); GI50 (SN12C): > 100 µM (inactive); GI50 (NCI-H226): 14.8 µM (inactive); GI50 (OVCAR-3): 38.4 µM (inactive); GI50 (NCI/ADR-RES): 22.1 µM (inactive); GI50 (HCT-15): 19.2 µM; GI50 (MCF7): 58.9 µM (inactive); GI50 (OVCAR-5): > 100 µM (inactive); GI50 (SF-268): 9.95 µM (inactive); GI50 (786-0): 46.8 µM (inactive); GI50 (HL-60): 52.8 µM (inactive); GI50 (SF-295): 33 µM (inactive); GI50 (U-251): > 100 µM (inactive); GI50 (SK-OV-3): 33.4 µM (inactive); GI50 (NCI-H522): 13.1 µM (inactive); GI50 (MDA-MB-231): 10.2 µM (inactive); GI50 (IGROV-1): 23.9 µM (inactive); GI50 (UACC-257): 89.1 µM (inactive); GI50 (OVCAR-4): 91.6 µM (inactive); GI50 (K562): 84.9 µM (inactive); GI50 (SR): 49.1 µM (inactive); GI50 (MDA-MB-435): 69.7 µM (inactive); GI50 (CAKI-1): 50.9 µM (inactive); GI50 (SK-MEL-28): > 100 µM (inactive); GI50 (HT-29): 37.4 µM (inactive); GI50 (Hs-578T): > 100 µM (inactive); GI50 (SF-539): 66.7 µM (inactive); GI50 (KM12): 45.3 µM (inactive); GI50 (CCRF-CEM): 70.8 µM (inactive); GI50 (Malme-3M): 14.5 µM (inactive); GI50 (SK-MEL-2): 22.5 µM (inactive); GI50 (OVCAR-8): 21.1 µM (inactive); GI50 (MDA-N): > 100 µM (inactive); GI50 (RPMI-8226): 81.5 µM (inactive); GI50 (BT-549): 40.6 µM (inactive); GI50 (SNB-19): > 100 µM (inactive); GI50 (SNB-75): 24.4 µM (inactive); GI50 (SW-620): 81.3 µM (inactive); GI50 (LOX IMVI): 31.6 µM (inactive); GI50 (UACC-62): 28.1 µM (inactive); GI50 (COLO 205): 47.8 µM (inactive); GI50 (NCI-H460): 31.5 µM (inactive); GI50 (UO-31): 42 µM (inactive)
